Laboratory results reported in US10266513B2 (Pfizer Inc., priority 2012, dated 2019).

Biological target: human full-length BTK Kinase (Homo sapiens (Human), UniProt Q06187)
Assay: Human BTK LanthaScreen Assay (TR-FRET)
Format: biochemical
Conditions: 50 μM ATP, FAM-Srctide peptide substrate, read-out: BTK Inhibition IC50
Description: Human BTK LanthaScreen Assay

Chain of human full-length BTK Kinase (Q06187 whole entry): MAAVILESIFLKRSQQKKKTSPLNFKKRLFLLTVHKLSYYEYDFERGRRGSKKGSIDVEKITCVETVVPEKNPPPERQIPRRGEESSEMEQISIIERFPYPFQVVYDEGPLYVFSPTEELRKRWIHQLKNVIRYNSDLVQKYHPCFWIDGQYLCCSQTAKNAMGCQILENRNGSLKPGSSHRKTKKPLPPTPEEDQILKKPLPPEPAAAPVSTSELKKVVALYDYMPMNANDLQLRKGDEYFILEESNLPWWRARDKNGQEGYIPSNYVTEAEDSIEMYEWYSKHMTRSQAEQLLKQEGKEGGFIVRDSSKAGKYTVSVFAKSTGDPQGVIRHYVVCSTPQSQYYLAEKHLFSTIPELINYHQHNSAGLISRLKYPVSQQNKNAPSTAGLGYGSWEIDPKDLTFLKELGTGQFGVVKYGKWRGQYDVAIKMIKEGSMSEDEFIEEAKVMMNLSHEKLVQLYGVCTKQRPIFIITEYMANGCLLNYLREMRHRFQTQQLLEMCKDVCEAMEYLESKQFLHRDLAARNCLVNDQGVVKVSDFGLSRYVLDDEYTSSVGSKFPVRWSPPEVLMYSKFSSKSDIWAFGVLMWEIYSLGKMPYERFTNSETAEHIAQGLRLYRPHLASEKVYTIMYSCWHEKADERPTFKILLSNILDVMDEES

**Q.** `N#CN1CCCC(n2nc(-c3ccc(Oc4cc(F)cc(Cl)c4)cc3)c(C(N)=O)c2N)C1` (centres unmarked) [Example 51, 5-amino-3-[4-(3-chloro-5-fluoro-phenoxy)phenyl]-1-(1-cyanopiperidin-3-yl)-1H-pyrazole-4-carboxamide] was tested. Which IC50 did it give?
**A.** 1.9 nM

**Q.** For `C=C(F)C(=O)N1CCC[C@@H](n2nc(-c3ccc(Oc4ccc(Cl)cc4)cc3)c(C(N)=O)c2N)C1` [Example 134, 5-amino-3-[4-(4-chlorophenoxy)phenyl]-1-[(3R)-1-(2-fluoroacryloyl)piperidin-3-yl]-1H-pyrazole-4-carboxamide], which IC50 is on record?
**A.** 5 nM

**Q.** With `N#CN1CCCC(n2nc(-c3ccc(Oc4ccc(F)cc4F)cc3)c(C(N)=O)c2N)C1` (single isomer, unassigned) [Example 26] as the compound, how does the IC50 read?
**A.** 17.3 nM

**Q.** With `Cc1ccc(Oc2ccc(-c3nn(C4CCCN(C#N)C4)c(N)c3C(N)=O)cc2)nc1` (single isomer, unassigned) [Example 113] as the compound, how does the IC50 read?
**A.** 264 nM

**Q.** `Cc1ccc(Oc2ccc(-c3nn(C4CCCN(C#N)C4)c(N)c3C(N)=O)cc2)c(F)c1` (centres unmarked) [Example 39, 5-amino-1-(1-cyanopiperidin-3-yl)-3-[4-(2-fluoro-4-methylphenoxy)phenyl]-1H-pyrazole-4-carboxamide] was tested. Which IC50 did it give?
**A.** 1.1 nM

**Q.** How did the IC50 turn out when `NC(=O)c1c(-c2ccc(Oc3ccc(Cl)cc3)cc2)nn([C@@H]2CCCN(C(=O)/C=C/CF)C2)c1N` [Example 132, 5-amino-3-[4-(4-chlorophenoxy)phenyl]-1-{(3R)-1-[(2E)-4-fluorobut-2-enoyl]piperidin-3-yl}-1H-pyrazole-4-carboxamide] was run?
**A.** 1.1 nM

**Q.** With `NC(=O)c1c(-c2ccc(Oc3ccccc3)cc2)nn([C@@H]2CCCN(C(=O)/C=C/CO)C2)c1N` [Example 129, 5-amino-1-{(3R)-1-[(2E)-4-hydroxybut-2-enoyl]piperidin-3-yl}-3-(4-phenoxyphenyl)-1H-pyrazole-4-carboxamide] as the compound, how does the IC50 read?
**A.** 1 nM

**Q.** For `NC(=O)c1c(-c2ccc(Oc3ccc(F)cc3F)cc2)nn([C@@H]2CCCN(C(=O)/C(F)=C/CO)C2)c1N` [Example 146, 5-amino-3-[4-(2,4-difluorophenoxy)phenyl]-1-{(3R)-1-[(2Z)-2-fluoro-4-hydroxybut-2-enoyl]piperidin-3-yl}-1H-pyrazole-4-carboxamide], which IC50 is on record?
**A.** 48 nM

**Q.** `N#CN1CCC[C@H](n2nc(-c3ccc(Oc4ncc(Cl)cc4F)cc3)c(C(N)=O)c2N)C1` [Example 119, (S)-5-amino-3-(4-((5-chloro-3-fluoropyridin-2-yl)oxy)phenyl)-1-(1-cyanopiperidin-3-yl)-1H-pyrazole-4-carboxamide] was tested. Which IC50 did it give?
**A.** 60.5 nM

**Q.** With `N#CN1CCCC(n2nc(-c3ccc(Oc4ccc(F)cn4)cc3)c(C(N)=O)c2N)C1` (centres unmarked) [Example 111, 5-amino-1-(1-cyanopiperidin-3-yl)-3-{4-[(5-fluoropyridin-2-yl)oxy]phenyl}-1H-pyrazole-4-carboxamide] as the compound, how does the IC50 read?
**A.** 119 nM

**Q.** How did the IC50 turn out when `CC/C=C/C(=O)N1CCC[C@@H](n2nc(-c3ccc(Oc4ccc(F)cc4F)cc3)c(C(N)=O)c2N)C1` [Example 143, 5-amino-3-[4-(2,4-difluorophenoxy)phenyl]-1-{(3R)-1-[(2E)-pent-2-enoyl]piperidin-3-yl}-1H-pyrazole-4-carboxamide] was run?
**A.** 125 nM

**Q.** With `N#CN1CCCC(n2nc(-c3ccc(Oc4ccccc4Cl)cc3)c(C(N)=O)c2N)C1` (centres unmarked) [Example 56, 5-amino-3-[4-(2-chlorophenoxy)-phenyl]-1-(1-cyanopiperidin-3-yl)-1H-pyrazole-4-carboxamide] as the compound, how does the IC50 read?
**A.** 1.3 nM

**Q.** Which IC50 does the source give for `N#CN1CCCC(n2nc(-c3ccc(Oc4ccc(Cl)cc4Cl)cc3)c(C(N)=O)c2N)C1` (centres unmarked) [Example 50, 5-amino-1-(1-cyanopiperidin-3-yl)-3-[4-(2,4-dichlorophenoxy)phenyl]-1H-pyrazole-4-carboxamide] here?
**A.** 1.8 nM

**Q.** Which IC50 does the source give for `C=C(F)C(=O)N1CCC[C@@H](n2nc(-c3ccc(Oc4cccc(C(F)(F)F)n4)cc3)c(C(N)=O)c2N)C1` [Example 165] here?
**A.** 4.4 nM

**Q.** How did the IC50 turn out when `N#CN1CCCC(n2nc(-c3ccc(Cc4cccc(F)c4)cc3)c(C(N)=O)c2N)C1` (single isomer, unassigned) [Example 79] was run?
**A.** 31 nM

**Q.** Which IC50 does the source give for `N#CN1CCCC(n2nc(-c3ccc(Cc4ccc(F)c(F)c4)cc3)c(C(N)=O)c2N)C1` (single isomer, unassigned) [Example 85] here?
**A.** 212 nM

**Q.** For `Cc1ccc(Oc2cccc(-c3nn(C4CCCN(C#N)C4)c(N)c3C(N)=O)c2)cc1F` (centres unmarked) [Example 96, 5-amino-1-(1-cyanopiperidin-3-yl)-3-[3-(3-fluoro-4-methylphenoxy)phenyl]-1H-pyrazole-4-carboxamide], which IC50 is on record?
**A.** 21.9 nM

**Q.** With `Cc1ccc(Oc2ccc(-c3nn(C4CCCN(C#N)C4)c(N)c3C(N)=O)cc2)cc1C` (single isomer, unassigned) [Example 17] as the compound, how does the IC50 read?
**A.** 0.4 nM

**Q.** With `N#CN1CCCC(n2nc(-c3ccc(Oc4cccc(Cl)c4)cc3)c(C(N)=O)c2N)C1` (centres unmarked) [Example 53, 5-amino-3-[4-(3-chlorophenoxy)-phenyl]-1-(1-cyanopiperidin-3-yl)-1H-pyrazole-4-carboxamide] as the compound, how does the IC50 read?
**A.** 1.7 nM

**Q.** How did the IC50 turn out when `Cc1ccc(Oc2ccc(-c3nn(C4CCCN(C#N)C4)c(N)c3C(N)=O)cc2)c(C)c1` (centres unmarked) [Example 23, 5-amino-1-(1-cyanopiperidin-3-yl)-3-[4-(2,4-dimethylphenoxy)phenyl]-1H-pyrazole-4-carboxamide] was run?
**A.** 9.2 nM

**Q.** Which IC50 does the source give for `N#CN1CCCC(n2nc(-c3ccc(Cc4cccc(F)c4)cc3)c(C(N)=O)c2N)C1` (single isomer, unassigned) [Example 78] here?
**A.** 1.4 nM

**Q.** `N#CN1CCCC(n2nc(-c3cccc(Oc4ccc(OC(F)(F)F)c(F)c4)c3)c(C(N)=O)c2N)C1` (centres unmarked) [Example 106, 5-amino-1-(1-cyanopiperidin-3-yl)-3-{3-[3-fluoro-4-(trifluoromethoxy)phenoxy]phenyl}-1H-pyrazole-4-carboxamide] was tested. Which IC50 did it give?
**A.** 58 nM

**Q.** Which IC50 does the source give for `N#CN1CCCC(n2nc(-c3ccc(Sc4ccccc4)cc3)c(C(N)=O)c2N)C1` (centres unmarked) [Example 125, 5-amino-1-(1-cyanopiperidin-3-yl)-3-[4-(phenylthio)phenyl]-1H-pyrazole-4-carboxamide] here?
**A.** 0.4 nM

**Q.** `N#CN1CC2CC1CC2n1nc(-c2ccc(Oc3ccccc3)cc2)c(C(N)=O)c1N` (centres unmarked) [Example 11, 5-amino-1-(2-cyano-2-azabicyclo[2.2.1]hept-5-yl)-3-(4-phenoxyphenyl)-1H-pyrazole-4-carboxamide] was tested. Which IC50 did it give?
**A.** 5.9 nM

**Q.** `N#CN1CCC[C@H](n2nc(-c3ccc(Oc4cccc(C(F)(F)F)n4)cc3)c(C(N)=O)c2N)C1` [Example 117] was tested. Which IC50 did it give?
**A.** 18.9 nM

**Q.** How did the IC50 turn out when `C[C@H]1CC[C@@H](n2nc(-c3ccc(Oc4ccc(F)cc4F)cc3)c(C(N)=O)c2N)CN1C#N` [Example 122, 5-amino-1-[(3R,6S)-1-cyano-6-methylpiperidin-3-yl]-3-[4-(2,4-difluorophenoxy)phenyl]-1H-pyrazole-4-carboxamide] was run?
**A.** 0.46 nM

**Q.** Which IC50 does the source give for `C[C@H](O)/C=C/C(=O)N1CCC[C@@H](n2nc(-c3ccc(Oc4ccc(F)cc4F)cc3)c(C(N)=O)c2N)C1` [Example 148, 5-amino-3-[4-(2,4-difluorophenoxy)phenyl]-1-{(3R)-1-[(2E,4S)-4-hydroxypent-2-enoyl]piperidin-3-yl}-1H-pyrazole-4-carboxamide] here?
**A.** 39 nM

**Q.** Which IC50 does the source give for `N#CN1CCC(n2nc(-c3ccc(Oc4ccccc4)cc3)c(C(N)=O)c2N)C1` (centres unmarked) [Example 7, 5-amino-1-(1-cyanopyrrolidin-3-yl)-3-(4-phenoxyphenyl)-1H-pyrazole-4-carboxamide] here?
**A.** 16.2 nM

**Q.** Which IC50 does the source give for `N#CN1CCCC(n2nc(-c3ccc(Oc4cc(Cl)ccc4Cl)cc3)c(C(N)=O)c2N)C1` (centres unmarked) [Example 55, 5-amino-1-(1-cyanopiperidin-3-yl)-3-[4-(2,5-dichlorophenoxy)phenyl]-1H-pyrazole-4-carboxamide] here?
**A.** 2.2 nM
